Data as given in US10428064B2, “Fused-tricyclic inhibitors of KRAS and methods of use thereof” (Araxes Pharma LLC, priority 2015, dated 2019).

Target: T1, KRAS G12C 1-169, his-tagged protein, GDP-loaded (Homo sapiens, UniProt P01116, G12C)
T1 construct: KRAS G12C 1-169, his-tagged protein, GDP-loaded
Assay: Biochemical assay: covalent modification of KRAS G12C protein measured by mass spectrometry (RapidFire/TOF or Q-Exactive)
Conditions: covalent binding to KRAS G12C
Method: Test compounds are prepared as 10 mM stock solutions in DMSO (Fisher cat # BP-231-100). KRAS G12C 1-169, his-tagged protein, GDP-loaded is diluted to […] in buffer (20 mM Hepes, 150 mM NaCl, 1 mM MgCl2). Compounds are tested for activity as follows:
Compounds are diluted to 50× final test concentration in DMSO in 96-well storage plates. Compound stock solutions are vortexed before use and observed carefully for any sign of precipitation. […] The plate is then resealed with aluminum seal and stored on dry ice until analyzed as described below.
The above described assays are analyzed by mass spectrometry according to one of the following two procedures: […]
After another 30 minute equilibration time, a blank batch (i.e., buffer) is run to ensure equipment is operating properly. […] The method is then run and masses of each individual well recorded. […]
The masses and peak intensities of KRAS G12C protein species are measured using a Dionex RSLCnano system (Thermo Scientific) connected to a Q Exactive Plus mass spectrometer (Thermo Scientific). […]
The mass spectrometer is operated in profile mode at a resolution of 17500, 5 microscans, using 50 msec max injection time and an AGC target of 1e6, and a full mass range from 800-1850 m/z is recorded. […]

T1 sequence (P01116 1-169 isoform P01116-2 G12C): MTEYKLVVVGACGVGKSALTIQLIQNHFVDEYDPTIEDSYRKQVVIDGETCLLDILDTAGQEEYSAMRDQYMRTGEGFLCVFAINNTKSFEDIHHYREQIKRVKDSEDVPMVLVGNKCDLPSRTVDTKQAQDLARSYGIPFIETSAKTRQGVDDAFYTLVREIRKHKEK

| SMILES | Binding % |
| --- | --- |
| C=CC(=O)N1CCN(c2c3c(nc4c(F)c(-c5c(O)cccc5F)c(Cl)cc24)NC(=O)NC3)CC1 [Compound 1, 5-(4-acryloylpiperazin-1-yl)-7-chloro-9-fluoro-8-(2-fluoro-6-hydroxyphenyl)-3,4-dihydropyrimido [4,5-b]quinolin-2(1H)-one] | ++ (++ indicates binding activity greater than 50%) |
| C=CC(=O)N1CCN(c2c3c(nc4c(F)c(-c5c(O)cccc5F)c(Cl)cc24)CCN(C)C3=O)CC1 [Compound 19, 10-(4-acryloylpiperazin-1-yl)-8-chloro-6-fluoro-7-(2-fluoro-6-hydroxyphenyl)-2-methyl-3,4-dihydrobenzo[b] [1,6]naphthyridin-1(2H)-one] | + (+ indicates binding activity up to 50%) |
